Values quoted from earlier work, collected in patent publication US12378302B2, “Fusion molecules and uses thereof” (Foundation Medicine, Inc., priority 2012, dated 2025).
Read-outs that look alike come from different tables or passages of the source. Values belong to the compound of their own block, whether it stands above or below them.

Tests used:
VEGFR-stimulated cells [1] = conditions: read-out: IC50 cell proliferation of VEGFR-stimulated cells
MTC = conditions: randomized Phase 3, vandetanib compared to placebo
VEGFR-stimulated cells [2] = conditions: read-out: IC50 cell proliferation of VEGFR-stimulated cells; remark: listed apart in the source
EGFR-stimulated HUVEC [3] = conditions: read-out: IC50 EGFR-stimulated HUVEC proliferation
EGFR-stimulated HUVEC [4] = conditions: read-out: IC50 EGFR-stimulated HUVEC proliferation; remark: listed apart in the source
all four Fgfr kinases [5] = system: all four Fgfr kinases
all four Fgfr kinases [6] = conditions: preclinical studies
FKBP12 = FKBP12 (Homo sapiens, UniProt P62942); conditions: read-out: IC50 mTOR inhibitor of FKBP12
FKBP12, sequence (P62942 whole entry): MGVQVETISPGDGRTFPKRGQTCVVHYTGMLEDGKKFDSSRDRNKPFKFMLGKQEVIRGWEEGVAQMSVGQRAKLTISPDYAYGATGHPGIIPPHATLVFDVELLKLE

ErbB3 = ErbB3 (Homo sapiens, UniProt P21860)
ErbB3, sequence (P21860 20-1342): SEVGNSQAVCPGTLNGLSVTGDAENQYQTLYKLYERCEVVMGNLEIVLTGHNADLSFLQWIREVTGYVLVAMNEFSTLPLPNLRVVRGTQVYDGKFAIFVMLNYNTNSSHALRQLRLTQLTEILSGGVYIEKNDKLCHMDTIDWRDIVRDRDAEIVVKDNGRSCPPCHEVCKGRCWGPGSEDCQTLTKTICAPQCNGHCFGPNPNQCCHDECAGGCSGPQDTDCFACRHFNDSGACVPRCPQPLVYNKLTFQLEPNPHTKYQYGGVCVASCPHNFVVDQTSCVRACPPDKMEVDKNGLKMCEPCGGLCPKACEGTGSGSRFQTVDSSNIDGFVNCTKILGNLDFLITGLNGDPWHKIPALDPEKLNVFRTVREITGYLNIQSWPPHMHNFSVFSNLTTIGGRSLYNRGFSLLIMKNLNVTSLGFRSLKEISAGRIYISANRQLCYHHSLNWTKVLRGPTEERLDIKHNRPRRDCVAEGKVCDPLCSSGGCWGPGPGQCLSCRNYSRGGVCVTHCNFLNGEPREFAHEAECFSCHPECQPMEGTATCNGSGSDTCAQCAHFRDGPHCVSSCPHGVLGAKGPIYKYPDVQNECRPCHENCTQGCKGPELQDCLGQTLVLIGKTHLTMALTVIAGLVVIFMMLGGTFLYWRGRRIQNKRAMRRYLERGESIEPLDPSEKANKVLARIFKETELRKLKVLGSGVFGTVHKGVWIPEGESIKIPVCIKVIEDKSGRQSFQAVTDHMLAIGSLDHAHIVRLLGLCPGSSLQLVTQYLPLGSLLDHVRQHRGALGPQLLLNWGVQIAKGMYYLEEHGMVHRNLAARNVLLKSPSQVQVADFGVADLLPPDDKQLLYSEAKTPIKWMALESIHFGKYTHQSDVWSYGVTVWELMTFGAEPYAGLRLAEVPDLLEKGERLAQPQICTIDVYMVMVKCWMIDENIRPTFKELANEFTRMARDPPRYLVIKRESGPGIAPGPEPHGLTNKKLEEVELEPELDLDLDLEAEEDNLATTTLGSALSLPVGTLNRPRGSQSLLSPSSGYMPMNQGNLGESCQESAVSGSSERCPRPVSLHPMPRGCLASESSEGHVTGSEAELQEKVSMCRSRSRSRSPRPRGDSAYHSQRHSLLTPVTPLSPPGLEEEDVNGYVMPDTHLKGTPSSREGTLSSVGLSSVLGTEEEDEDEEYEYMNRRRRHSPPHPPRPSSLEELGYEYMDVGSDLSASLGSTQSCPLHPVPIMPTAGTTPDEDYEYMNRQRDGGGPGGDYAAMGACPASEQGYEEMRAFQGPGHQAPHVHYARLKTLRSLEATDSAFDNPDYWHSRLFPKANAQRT

ErbB4 = molecular target: T1, ErbB4 (Homo sapiens, UniProt Q15303)
T1 construct: host or cells: glioblastoma cell lines
T1 sequence (Q15303 26-1308): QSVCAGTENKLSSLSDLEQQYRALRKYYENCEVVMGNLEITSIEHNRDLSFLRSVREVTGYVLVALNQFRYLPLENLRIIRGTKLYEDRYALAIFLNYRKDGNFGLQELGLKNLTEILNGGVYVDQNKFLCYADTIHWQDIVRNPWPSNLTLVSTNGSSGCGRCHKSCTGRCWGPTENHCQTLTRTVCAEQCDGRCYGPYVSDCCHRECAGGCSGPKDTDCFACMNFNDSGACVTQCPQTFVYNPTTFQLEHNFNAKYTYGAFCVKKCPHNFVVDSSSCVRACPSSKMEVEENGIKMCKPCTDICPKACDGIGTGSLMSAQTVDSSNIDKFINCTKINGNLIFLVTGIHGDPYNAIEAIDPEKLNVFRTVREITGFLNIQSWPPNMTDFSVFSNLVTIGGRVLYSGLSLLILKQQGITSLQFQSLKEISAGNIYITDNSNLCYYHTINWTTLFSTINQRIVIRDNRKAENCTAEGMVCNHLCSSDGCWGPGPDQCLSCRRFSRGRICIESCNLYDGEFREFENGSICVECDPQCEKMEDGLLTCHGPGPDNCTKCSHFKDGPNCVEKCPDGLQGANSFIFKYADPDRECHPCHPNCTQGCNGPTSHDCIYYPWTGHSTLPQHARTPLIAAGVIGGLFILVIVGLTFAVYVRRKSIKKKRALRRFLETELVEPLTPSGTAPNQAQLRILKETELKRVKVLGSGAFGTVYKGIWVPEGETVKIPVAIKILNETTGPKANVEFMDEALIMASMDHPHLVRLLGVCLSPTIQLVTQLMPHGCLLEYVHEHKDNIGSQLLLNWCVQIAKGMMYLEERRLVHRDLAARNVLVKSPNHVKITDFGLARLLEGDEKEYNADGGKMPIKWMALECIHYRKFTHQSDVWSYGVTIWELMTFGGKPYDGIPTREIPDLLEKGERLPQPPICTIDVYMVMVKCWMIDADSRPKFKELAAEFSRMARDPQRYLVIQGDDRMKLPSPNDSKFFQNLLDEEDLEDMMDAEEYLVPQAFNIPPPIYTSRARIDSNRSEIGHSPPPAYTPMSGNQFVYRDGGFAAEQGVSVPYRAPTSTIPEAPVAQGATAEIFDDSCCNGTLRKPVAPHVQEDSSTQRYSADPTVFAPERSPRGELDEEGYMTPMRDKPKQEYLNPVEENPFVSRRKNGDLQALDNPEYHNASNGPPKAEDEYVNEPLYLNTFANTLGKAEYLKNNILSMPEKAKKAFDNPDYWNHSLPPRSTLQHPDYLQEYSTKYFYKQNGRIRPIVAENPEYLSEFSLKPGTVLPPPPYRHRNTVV

[7] = system: advanced non-small cell lung cancer
pancreatic cancer [8] = conditions: Phase 2, pancreatic cancer
pancreatic cancer [9] = conditions: Phase 2, gefitinib with gemcitabine
[10] = system: KIF5B-RET transformed cells; conditions: Lipson et al
inactive form of ErbB4 = inactive form of ErbB4 (Homo sapiens, UniProt Q15303); conditions: region conserved in all EGF family members
inactive form of ErbB4, sequence (Q15303 702-1029 limits assumed): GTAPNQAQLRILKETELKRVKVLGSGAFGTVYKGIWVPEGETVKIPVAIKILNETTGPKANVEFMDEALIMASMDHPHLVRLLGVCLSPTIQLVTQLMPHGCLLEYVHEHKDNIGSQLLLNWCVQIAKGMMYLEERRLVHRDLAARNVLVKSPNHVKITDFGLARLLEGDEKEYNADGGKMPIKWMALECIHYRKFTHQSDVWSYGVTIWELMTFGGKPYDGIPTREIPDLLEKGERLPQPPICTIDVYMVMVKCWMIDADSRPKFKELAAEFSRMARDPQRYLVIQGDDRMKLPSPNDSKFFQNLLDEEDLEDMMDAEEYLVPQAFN

[11] = system: cells expressing FGFR1 fusions
PDGFR = conditions: read-out: IC50 PDGFR
[12] = system: Vps34, AKT, PDK1, p70S6K, MEK, ERK, p38, or JNK
PDGFRα [13] = molecular target: T2, PDGFRα (Homo sapiens, UniProt P16234); conditions: read-out: IC50 against PDGFRα
T2 sequence (P16234 24-1089, species assumed): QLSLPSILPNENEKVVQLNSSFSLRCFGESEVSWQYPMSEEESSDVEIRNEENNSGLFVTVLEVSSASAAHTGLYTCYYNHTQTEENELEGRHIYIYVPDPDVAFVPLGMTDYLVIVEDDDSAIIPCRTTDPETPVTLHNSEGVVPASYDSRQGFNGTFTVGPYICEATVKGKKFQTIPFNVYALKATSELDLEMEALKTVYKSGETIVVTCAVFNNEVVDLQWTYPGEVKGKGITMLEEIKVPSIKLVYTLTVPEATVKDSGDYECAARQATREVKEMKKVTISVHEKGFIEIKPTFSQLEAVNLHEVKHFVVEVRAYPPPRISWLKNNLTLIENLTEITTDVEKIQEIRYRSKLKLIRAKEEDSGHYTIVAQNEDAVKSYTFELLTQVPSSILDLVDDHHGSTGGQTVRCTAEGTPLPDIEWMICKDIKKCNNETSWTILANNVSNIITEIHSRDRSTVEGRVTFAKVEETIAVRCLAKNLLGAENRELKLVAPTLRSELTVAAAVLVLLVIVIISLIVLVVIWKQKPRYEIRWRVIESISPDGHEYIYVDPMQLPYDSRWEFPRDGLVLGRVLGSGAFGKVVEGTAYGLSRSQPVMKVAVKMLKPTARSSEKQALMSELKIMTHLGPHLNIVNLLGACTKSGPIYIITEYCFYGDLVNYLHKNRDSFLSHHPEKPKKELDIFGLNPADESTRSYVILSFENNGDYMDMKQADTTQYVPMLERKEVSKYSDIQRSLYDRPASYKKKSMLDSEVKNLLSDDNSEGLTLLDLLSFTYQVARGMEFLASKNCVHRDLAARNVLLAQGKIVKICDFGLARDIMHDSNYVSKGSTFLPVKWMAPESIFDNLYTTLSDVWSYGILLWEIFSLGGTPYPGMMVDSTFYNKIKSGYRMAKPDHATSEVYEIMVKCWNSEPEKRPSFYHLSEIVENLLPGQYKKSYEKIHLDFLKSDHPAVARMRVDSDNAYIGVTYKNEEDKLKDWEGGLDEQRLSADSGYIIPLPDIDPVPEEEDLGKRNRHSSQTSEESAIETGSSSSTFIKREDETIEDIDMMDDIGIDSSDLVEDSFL

PDGFRα [14] = molecular target: T2, PDGFRα
Smad4-null cells = conditions: pre-clinical mouse models
PI3Kγ = PI3Kγ (Homo sapiens, UniProt P48736); conditions: read-out: Ki PI3Kγ (p110γ)
advanced cervical cancer = conditions: Phase 2, pazopanib arm compared to lapatinib therapy
[15] = system: advanced urothelial cancer; conditions: Phase 2, single agent
[16] = system: early stage NSCLC patients; conditions: Phase 2 trial

Structure (SMILES): Cn1c(=O)n(-c2ccc(C(C)(C)C#N)cc2)c2c3cc(-c4cnc5ccccc5c4)ccc3ncc21 [BEZ235, 2-methyl-2-(4-(3-methyl-2-oxo-8-(quinolin-3-yl)-2,3-dihydroimidazo[4,5-c]quinolin-1-yl)phenyl)propanenitrile]
- inhibition of Akt and PDK1 (Akt and PDK1): poor inhibitory

Structure (SMILES): COc1cc2c(Nc3ccc(Br)cc3F)ncnc2cc1OCC1CCN(C)CC1 [vandetanib]
- IC50 (VEGFR-stimulated cells [1]): 60 nM
- PFS (MTC): significant improvement in PFS
- IC50 (VEGFR-stimulated cells [2]): 60 nM
- IC50 (EGFR-stimulated HUVEC [3]): 170 nM
- IC50 (EGFR-stimulated HUVEC [4]): 170 nM

Structure (SMILES): Cc1ccc(C(=O)Nc2ccc(CN3CCN(C)CC3)c(C(F)(F)F)c2)cc1C#Cc1cnc2cccnn12 [ponatinib]
- activity against all four Fgfr kinases (all four Fgfr kinases [5]): substantial activity
- activity against all four Fgfr kinases (all four Fgfr kinases [6]): substantial activity

- IC50 (FKBP12): 1.6 to 2.4 nM
Structure (SMILES): CO[C@H]1C[C@@H]2CC[C@@H](C)[C@@](O)(O2)C(=O)C(=O)N2CCCC[C@H]2C(=O)O[C@H]([C@@H](C)C[C@@H]2CC[C@@H](OCCO)[C@H](OC)C2)CC(=O)[C@H](C)/C=C(\C)[C@@H](O)[C@@H](OC)C(=O)C(C)C[C@H](C)/C=C/C=C/C=C/1C (stereo partly drawn) [Everolimus, 23,27-Epoxy-3H-pyrido[2,1-c][1,4]oxaazacyclohentriacontine, rapamycin deriv]

- binding to ErbB3, preventing phosphorylation and therefore activation (ErbB3): bind
- binding to ErbB4, preventing phosphorylation and therefore activation (ErbB4): bind
Structure (SMILES): COc1cc2ncnc(Nc3ccc(F)c(Cl)c3)c2cc1OCCCN1CCOCC1 [gefitinib]
- Akt/Erk pathway (glioblastoma cell lines): decrease
- cell cycle (glioblastoma cell lines): cell cycle arrest
- progression-free survival compared with combination chemotherapy ([7]; chemo-naïve patients with known EGFR mutations in their tumor): significant improvement in progression-free survival
- survival benefit compared to placebo ([7]; patients who had progressed on first-line therapy): failed to show a survival benefit
- efficacy (pancreatic cancer [8]): some efficacy
- instances of stable disease (pancreatic cancer [9]): 12/53
- responses (pancreatic cancer [9]): 6/53
- sensitivity of KIF5B-RET transformed cells [10]: not

- binding to ErbB3, preventing phosphorylation and therefore activation (ErbB3): bind
- binding to ErbB4, preventing phosphorylation and therefore activation (ErbB4): bind
- binding to ErbB4 (inactive form of ErbB4): bind an inactive form of ErbB4
Structure (SMILES): CS(=O)(=O)CCNCc1ccc(-c2ccc3ncnc(Nc4ccc(OCc5cccc(F)c5)c(Cl)c4)c3c2)o1 [lapatinib]
- Akt/Erk pathway (glioblastoma cell lines): decrease
- cell cycle (glioblastoma cell lines): cell cycle arrest

Structure (SMILES): Cc1nc(Nc2ncc(C(=O)Nc3c(C)cccc3Cl)s2)cc(N2CCN(CCO)CC2)n1 [dasatinib]
- sensitivity of cells expressing FGFR1 fusions [11]: sensitivity

Structure (SMILES): COc1ccc(-c2ccc3c(N4CCOCC4)nc(N4C[C@@H](C)O[C@@H](C)C4)nc3n2)cc1CO [KU-0063794, (5-(2-((2R,6S)-2,6-dimethylmorpholino)-4-morpholinopyrido[2,3-d]pyrimidin-7-yl)-2-methoxyphenyl)methanol]
- effect on PI3Ks (PI3Ks): no effect

Structure (SMILES): Nc1ncnc2c1c(-c1cnc3[nH]ccc3c1)nn2C1CCCC1 [PP-121, 1-cyclopentyl-3-(1H-pyrrolo[2,3-b]pyridin-5-yl)-1H-pyrazolo[3,4-d]pyrimidin-4-amine]
- IC50 (PDGFR): 2 nM

Structure (SMILES): COc1ccc(-c2cc3c(C)nc(N)nc3n([C@H]3CC[C@H](OCCO)CC3)c2=O)cn1 [PF-04691502, 2-amino-8-((1r,4r)-4-(2-hydroxyethoxy)cyclohexyl)-6-(6-methoxypyridin-3-yl)-4-methylpyrido[2,3-d]pyrimidin-7(8H)-one]
- activity against Vps34, AKT, PDK1, p70S6K, MEK, ERK, p38, or JNK [12]: little activity

- IC50 (PDGFRα [13]): 40 nM
- IC50 (PDGFRα [14]): 40 nM
Structure (SMILES): S=C(NCc1ccc2c(c1)OCO2)N1CCN(c2ncnc3c2oc2ccccc23)CC1 [Amuvatinib]

Structure (SMILES): c1ccc(-c2nn3c(c2-c2ccnc4cc(OCCN5CCOCC5)ccc24)CCC3)nc1 [LY2109761, 7-(2-morpholinoethoxy)-4-(2-(pyridin-2-yl)-5,6-dihydro-4H-pyrrolo[1,2-b]pyrazol-3-yl)quinoline]
- metastasis of Smad4-null cells (Smad4-null cells): block metastasis

- Ki (PI3Kγ): 0.024 nM
Structure (SMILES): COc1ncc(-c2ccc3nccc(-c4ccnnc4)c3c2)cc1NS(=O)(=O)c1ccc(F)cc1F [GSK2126458, 2,4-difluoro-N-(2-methoxy-5-(4-(pyridazin-4-yl)quinolin-6-yl)pyridin-3-yl)benzenesulfonamide]

Structure (SMILES): O=C(c1ccc(/C=C/c2n[nH]c3ccccc23)cc1)N1CCNCC1 [KW-2449, (E)-(4-(2-(1H-indazol-3-yl)vinyl)phenyl)(piperazin-1-yl)methanone]
- effect on PDGFRβ, IGF-1R, EGFR (PDGFRβ, IGF-1R, EGFR): little effect

Structure (SMILES): Cc1ccc(Nc2nccc(N(C)c3ccc4c(C)n(C)nc4c3)n2)cc1S(N)(=O)=O [pazopanib]
- PFS and OS (advanced cervical cancer): improved PFS and OS
- Disease control rate [15]: 51.2%
- Partial responses (patients/enrolled) [15]: 7/41
- Stable disease (patients/enrolled) [15]: 14/41
- patients who achieved partial response [16]: 3 patients
- patients who experienced a reduction in tumor volume ([16]; 30/35): 86%
